Data taken from patent US20190315775A1, “MODIFIED […] AND PHARMACEUTICAL COMPOSITION HAVING SAME AS ACTIVE INGREDIENT” (KEIO UNIVERSITY, priority 2016, published 2019).

Tests used:
[1] = test system: various high-risk MM cells (KMM1, KMS11, KMS21, KMS26, KMS27, KMS28, KMS34, MUM24); assay: MTT cell viability of various MM cells, PEG11(E)-TC11 vs lenalidomide (Example 9); type: cell-based, human; conditions: 48 hours, FIG. 5A
[2] = Stability in medium (containing FBS); type: in vitro ADME
From the text: Subsequently, PEG11(E)-TC11 was examined for stability in mouse blood plasma (A) and in medium (B). […] Such degradation is considered to result from a small amount of esterase in FBS (fetal calf serum) contained in the medium.

[3] = Mouse blood kinetics upon single intraperitoneal administration; type: in vivo; conditions: male, ICR, plasma, ip, mice, single intraperitoneal TC11 60 mg/kg BW
Description: First, PEG11(E)-TC11(A) and PEG11(O)-TC11(B) were examined for stability in mouse blood. To 5-week-old male ICR mice (CLEA Japan, Tokyo, Japan), PEG11(E)-TC11 and PEG11(O)-TC11 were administered intraperitoneally at 59.1 mg/kg BW and 54.6 mg/kg BW, respectively, in such a manner that each molar concentration was equivalent to that of 20 mg/kg BW of TC11. At 0, 0.5, 1, 1.5, 4, 8, 12, and 24 hours later, a tail vein was punctured with a 26G needle for bleeding, and then about 100 μL of blood was collected using a heparinized hematocrit capillary tube (Terumo, Tokyo, Japan). After blood collection, blood was transferred into a 0.5-mL tube, and then subjected to centrifugation at 4° C. and 3,400 G for 15 minutes. Subsequently, the supernatant was collected, and then cryopreserved at −80° C. A quality control serum, Consera (registered trademark) (Nissui pharmaceutical, Tokyo, Japan) was dissolved in 3 mL of distilled water (dH2O) per bottle. After left to stand for 30 minutes, bottles were turned upside-down (mixing by inversion) and then used. Consera (190 μL) was mixed with the collected blood plasma and 10 μL of urine, thereby preparing samples. Moreover, PEG11(E)-TC11 and HOEtO-TC11 were each diluted with dH2O in such a manner that the concentrations were 0, 2, 4, 6, 8, and 10 μM, and then 10 μL of the solution at each concentration and 190 μL of Consera were mixed, thereby preparing a calibration curve sample. […]
HPLC analysis was conducted using Inertsil (registered trademark) ODS-3 […]×Φ4.6 mm as a stationary phase, CH3CN:dH2O=50:50 as a mobile phase, a flow rate of 0.70 mL/min, a UV detection wavelength of 267 nm, and an excitation wavelength of 380 nm, a fluorescence wavelength of 530 nm, and an injection amount of 10 μL at a column temperature of 25° C.
PEG11(E)-TC11 was examined. […] Note that as described in Example 7, since PEG11(E)-TC11 is quickly hydrolyzed by esterase in blood and then converted to HOEtO-TC11, the blood HOEtO-TC11 level was measured.

[4] = test system: KMS21 high-risk MM cell line; assay: WST-1 cell proliferation inhibition (Example 8), KMS21; type: cell-based; conditions: Homo sapiens, WST-1, 48 hours, read-out: IC50, cell proliferation inhibitory activity, KMS21
Description: (§1) Similar to Example 7, high-risk MM cell lines were treated with drugs, TC11 and PEG5(E)-TC11 at arbitrary concentrations. […] Specifically, each high-risk MM cell line was prepared at 5×10^5 cells/ml, and then seeded at 50 μl per well (2.5×10^4 cells). Drugs such as TC11, and PEG5(E)-TC11 were added to wells at arbitrary concentrations. WST-1 reagent was added at 48 hours after addition of drugs. After 1 hour of reaction at 37° C. in a CO2 incubator, absorbance was measured at a wavelength of 450 nm using a microplate reader. Cell viability was found from an absorbance ratio using absorbance at 0 μM designated as 100%. IC50 was calculated from a semi-logarithmic chart using Microsoft (registered trademark) Excel.

[5] = test system: KMS11 high-risk MM cell line; assay: WST-1 cell proliferation inhibition (Example 8), KMS11; type: cell-based; conditions: Homo sapiens, KMS-11, WST-1, 48 hours, read-out: IC50, cell proliferation inhibitory activity, KMS11
Description: as §1

[6] = test system: KMS34 high-risk MM cell line; assay: WST-1 cell proliferation inhibition (Example 8), KMS34; type: cell-based; conditions: Homo sapiens, KMS-34, WST-1, 48 hours, read-out: IC50, cell proliferation inhibitory activity, KMS34
Description: as §1

KMS11 xenograft = assay: Antitumor effect on KMS11 cancer-bearing mice (Example 17); type: in vivo, ICR/SCID mice; conditions: Day 9, i.p., equimolar to TC11 60 mg/kgBW
Description: KMS11 was administered to 5-week-old ICR/SCID mice at 2×10^7 cells/mouse via hypodermic injection. Tumor volumes were measured over time, and the day on which the tumor volume exceeded 50 mm^3 was designated as Day 1 and observation was performed for 9 days. […] On the day of administration, these solutions were diluted 10-fold with physiological saline while stirring with Vortex, and then intraperitoneally administered. Tumor volume was calculated by the following formula.
Tumor volume (mm^3)=major axis×minor axis×minor axis×π/6=major axis×minor axis×minor axis×0.5236

[7] = test system: KMM1 high-risk MM cell line; assay: WST-1 cell proliferation inhibition (Example 8), KMM1; type: cell-based; conditions: Homo sapiens, KMM-1, WST-1, 48 hours, read-out: IC50, cell proliferation inhibitory activity, KMM1
Description: as §1

COCCOCCOCCOCCOCCOCCOCCOCCOCCOCCOCCOCCC(=O)OCCOc1cc2c(cc1N)C(=O)N(c1c(C(C)C)cccc1C(C)C)C2=O [PEG11(E)-TC11]
In vitro cell proliferation inhibitory activity against various high-risk MM cells [1]: significant in vitro cell proliferation inhibitory activity
Stability in medium [2]: slowly degraded even in medium

CC(C)c1cccc(C(C)C)c1N1C(=O)c2ccc(N)cc2C1=O [TC11, 2-(2,6-di-isopropylphenyl)-5-amino-1H-isoindole-1,3-dione, reference compound]
Cmax ([3]; read-out: Cmax, highest blood level): 2600 nM
half-life ([3]; read-out: t1/2, serum half-life (converted)): 1.4 h
Tmax ([3]; read-out: tmax, time at which the blood level reached the highest level): 1.5 h
IC50 [4]: 1.6 µM
IC50 [5]: 3.2 µM
IC50 [6]: 6.5 µM
KMS-11 tumor growth compared to control mice (KMS11 xenograft): tumor growth was suppressed
IC50 [7]: 5.7 µM
